Reference: US8389509B2, “Substituted pyrazole compounds” (Bristol-Myers Squibb Company, priority 2009, dated 2013)

Experiments:
[1] = test system: Lewis rats; experiment: Rat Adjuvant Induced Arthritis Assay (AA); assay type: in vivo; conditions: for Paw Swelling (mL) on Day 20, Mean: vehicle mean 2.11
Description: Rat Adjuvant Induced Arthritis Assay (AA)
Male Lewis rats (150-175 g; Harlan, n=8 treatment group) were immunized at the base of the tail with 100 μl of 10 mg/ml freshly ground Mycobacterium butyricum (Difco Laboratories) in incomplete Freund's adjuvant (sigma). Animals were dosed once daily with the test article (as a solution or suspension in the vehicle) or vehicle alone (polyethylene glycol 300, “PEG300”) starting from the day of immunization. The volumes of their hind paws were measured in a water displacement plethysmometer (Ugo Basile, Italy). The baseline paw measurements were taken before onset of the disease (between day 7 to day 10). The paw measurements were then taken three times a week until the end of the study on day 20 to 21. All procedures involving animals were reviewed and approved by the Institutional Animal Care Use Committee.
Compounds of the present invention were tested in the Rat Adjuvant Induced Arthritis assay described hereinabove and the results are shown in Table F and Table G.

[2] = biological target: T1, S1P1 (Homo sapiens, UniProt P21453); experiment: S1P1 Binding Assay (33P-S1P competition, CHO membranes); conditions: membranes of CHO cells expressing human S1P1, 33P-S1P ligand; read-out: S1P1 B IC50
T1 construct: expressed in transfected cells; host or cells: CHO cells
T1 sequence (P21453 whole entry): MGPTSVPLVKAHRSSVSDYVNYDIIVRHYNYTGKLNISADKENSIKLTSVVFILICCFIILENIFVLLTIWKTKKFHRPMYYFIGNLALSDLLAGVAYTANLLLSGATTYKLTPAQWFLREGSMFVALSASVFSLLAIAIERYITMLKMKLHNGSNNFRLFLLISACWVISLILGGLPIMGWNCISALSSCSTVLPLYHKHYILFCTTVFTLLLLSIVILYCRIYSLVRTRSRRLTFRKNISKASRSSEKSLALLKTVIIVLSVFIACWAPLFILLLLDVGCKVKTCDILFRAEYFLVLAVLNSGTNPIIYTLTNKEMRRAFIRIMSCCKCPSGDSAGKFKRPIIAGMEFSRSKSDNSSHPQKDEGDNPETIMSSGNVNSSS
Description: Membranes were prepared from CHO cells expressing human S1P1. Cells were dissociated in buffer containing 20 mM HEPES, pH 7.5, 50 mM NaCl, 2 mM EDTA and Protease Inhibitor cocktail (Roche), and disrupted on ice using the Polytron homogenizer. The homogenate was centrifuged at 20,000 rpm (48,000 g) and the supernatant was discarded. The membrane pellets were resuspended in buffer containing 50 mM HEPES, pH 7.5, 100 mM NaCl, 1 mM MgCl2, 2 mM EDTA and stored in aliquots at −80° C. after protein concentration determination.
Membranes (2 μg/well) and 0.03 nM final concentration of ^33P-S1P ligand (1 mCi/ml, American Radiolabeled Chemicals) were added to the compound plates. Binding was performed for 60 min at room temperature, terminated by collecting the membranes onto GF/B filter plates, and radioactivity was measured by TOPCOUNT®. The competition data of the test compounds over a range of concentrations was plotted as percentage inhibition of radioligand specific binding. The IC50 is defined as the concentration of competing ligand needed to reduce specific binding by 50%.
Compounds of the present invention and Comparative Compound A were tested in the S1P1 binding assay described hereinabove and the results rounded to two digits, shown in Table A were obtained. In some instances, the value is an average of multiple experiments where N is the number of experiments conducted that provided satisfactory dose response curves. When more than one batch of an example was tested, the value presented is from the batch which allowed a comparison of GTPγS S1P1 and GTPγS S1P3 in Method A (Data shown in Table B). Data was not averaged across different batches of an example compound.

Question: Which “Paw Swelling (mL) on Day 20, Mean” value ([1]; 1.0 mg/kg once daily) does the source give for `O=C(O)C1CN(Cc2ccc(-c3noc(-c4cnn(-c5ccccn5)c4C(F)(F)F)n3)cc2)C1` [Example 1, 1-(4-(5-(1-(Pyridin-2-yl)-5-(trifluoromethyl)-1H-pyrazol-4-yl)-1,2,4-oxadiazol-3-yl)benzyl)azetidine-3-carboxylic acid] here?
Answer: Its value is 2.36 mL.

Question: And the “Paw Swelling (mL) on Day 20, Mean” value ([1]; 3.0 mg/kg once daily)?
Answer: Its value is 1.45 mL.

Question: What about the “Paw Swelling (mL) on Day 20, Mean” value ([1]; 6.0 mg/kg once daily) of the same compound?
Answer: Its value is 0.17 mL.

Question: What about the “Paw Swelling (mL) on Day 20, Mean” value ([1]; 10.0 mg/kg once daily) of the same compound?
Answer: Its value is 0.12 mL.

Question: What about the “disease progression as measured by paw swelling” value ([1]; Lewis rat, prophylactic oral dosing) of the same compound?
Answer: The value was “inhibit disease progression”.

Question: And the IC50 [2]?
Answer: The IC50 was 0.4 nM.
